{
  "source": "paper PMC9414551",
  "about": "(Pharmaceuticals, 2022)",
  "key": {"NR1-2B NMDAR [1]": {"target": "T1, NR1-2B NMDAR (Homo sapiens, UniProt Q05586+Q13224)", "experiment": "cell-based", "type": "cell-based", "design": "host or cells: CHO (CHO-hNR1-h2B), constitutive expression"}, "NR1-2C NMDAR [2]": {"target": "T2, NR1-2C NMDAR (Homo sapiens, UniProt Q05586+Q14957)", "T2 sequence (Q14957 20-1233, other chains not shown)": "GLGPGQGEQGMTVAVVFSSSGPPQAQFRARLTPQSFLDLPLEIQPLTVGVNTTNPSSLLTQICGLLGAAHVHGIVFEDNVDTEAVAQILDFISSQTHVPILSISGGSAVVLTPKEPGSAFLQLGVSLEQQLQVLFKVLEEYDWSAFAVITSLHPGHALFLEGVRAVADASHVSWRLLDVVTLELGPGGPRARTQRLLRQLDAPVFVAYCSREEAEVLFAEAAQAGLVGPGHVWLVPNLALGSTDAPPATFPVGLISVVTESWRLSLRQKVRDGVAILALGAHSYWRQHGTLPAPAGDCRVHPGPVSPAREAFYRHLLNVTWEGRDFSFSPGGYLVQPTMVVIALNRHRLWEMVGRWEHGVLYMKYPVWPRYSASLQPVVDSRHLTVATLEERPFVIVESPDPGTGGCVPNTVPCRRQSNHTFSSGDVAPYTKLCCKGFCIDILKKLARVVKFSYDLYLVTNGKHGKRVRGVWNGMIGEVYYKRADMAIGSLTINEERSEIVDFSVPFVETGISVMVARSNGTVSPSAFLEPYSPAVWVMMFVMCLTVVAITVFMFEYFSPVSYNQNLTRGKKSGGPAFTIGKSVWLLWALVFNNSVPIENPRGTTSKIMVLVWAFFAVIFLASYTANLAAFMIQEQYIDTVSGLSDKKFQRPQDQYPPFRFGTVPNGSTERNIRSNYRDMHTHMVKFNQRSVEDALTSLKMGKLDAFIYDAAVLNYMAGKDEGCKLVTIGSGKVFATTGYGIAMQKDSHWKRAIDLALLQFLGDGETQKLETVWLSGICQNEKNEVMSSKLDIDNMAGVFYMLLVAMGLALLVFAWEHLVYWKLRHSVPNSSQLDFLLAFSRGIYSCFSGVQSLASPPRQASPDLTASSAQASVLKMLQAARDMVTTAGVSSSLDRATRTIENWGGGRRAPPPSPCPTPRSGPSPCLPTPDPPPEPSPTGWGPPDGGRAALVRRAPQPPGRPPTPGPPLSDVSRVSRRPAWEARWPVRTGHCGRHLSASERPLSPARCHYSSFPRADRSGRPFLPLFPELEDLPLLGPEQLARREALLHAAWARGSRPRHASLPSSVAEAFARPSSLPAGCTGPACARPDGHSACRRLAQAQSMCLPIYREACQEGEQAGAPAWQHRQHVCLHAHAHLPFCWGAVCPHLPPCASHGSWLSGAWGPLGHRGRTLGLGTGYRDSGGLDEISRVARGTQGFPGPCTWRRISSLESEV", "experiment": "cell-based", "type": "cell-based", "design": "host or cells: CHO (CHO-hN1-h2C), tetracycline-induced expression"}, "NR1-2D NMDAR [3]": {"target": "T3, NR1-2D NMDAR (Homo sapiens, UniProt O15399+Q05586)", "T3 sequence (O15399 28-1336, other chains not shown)": "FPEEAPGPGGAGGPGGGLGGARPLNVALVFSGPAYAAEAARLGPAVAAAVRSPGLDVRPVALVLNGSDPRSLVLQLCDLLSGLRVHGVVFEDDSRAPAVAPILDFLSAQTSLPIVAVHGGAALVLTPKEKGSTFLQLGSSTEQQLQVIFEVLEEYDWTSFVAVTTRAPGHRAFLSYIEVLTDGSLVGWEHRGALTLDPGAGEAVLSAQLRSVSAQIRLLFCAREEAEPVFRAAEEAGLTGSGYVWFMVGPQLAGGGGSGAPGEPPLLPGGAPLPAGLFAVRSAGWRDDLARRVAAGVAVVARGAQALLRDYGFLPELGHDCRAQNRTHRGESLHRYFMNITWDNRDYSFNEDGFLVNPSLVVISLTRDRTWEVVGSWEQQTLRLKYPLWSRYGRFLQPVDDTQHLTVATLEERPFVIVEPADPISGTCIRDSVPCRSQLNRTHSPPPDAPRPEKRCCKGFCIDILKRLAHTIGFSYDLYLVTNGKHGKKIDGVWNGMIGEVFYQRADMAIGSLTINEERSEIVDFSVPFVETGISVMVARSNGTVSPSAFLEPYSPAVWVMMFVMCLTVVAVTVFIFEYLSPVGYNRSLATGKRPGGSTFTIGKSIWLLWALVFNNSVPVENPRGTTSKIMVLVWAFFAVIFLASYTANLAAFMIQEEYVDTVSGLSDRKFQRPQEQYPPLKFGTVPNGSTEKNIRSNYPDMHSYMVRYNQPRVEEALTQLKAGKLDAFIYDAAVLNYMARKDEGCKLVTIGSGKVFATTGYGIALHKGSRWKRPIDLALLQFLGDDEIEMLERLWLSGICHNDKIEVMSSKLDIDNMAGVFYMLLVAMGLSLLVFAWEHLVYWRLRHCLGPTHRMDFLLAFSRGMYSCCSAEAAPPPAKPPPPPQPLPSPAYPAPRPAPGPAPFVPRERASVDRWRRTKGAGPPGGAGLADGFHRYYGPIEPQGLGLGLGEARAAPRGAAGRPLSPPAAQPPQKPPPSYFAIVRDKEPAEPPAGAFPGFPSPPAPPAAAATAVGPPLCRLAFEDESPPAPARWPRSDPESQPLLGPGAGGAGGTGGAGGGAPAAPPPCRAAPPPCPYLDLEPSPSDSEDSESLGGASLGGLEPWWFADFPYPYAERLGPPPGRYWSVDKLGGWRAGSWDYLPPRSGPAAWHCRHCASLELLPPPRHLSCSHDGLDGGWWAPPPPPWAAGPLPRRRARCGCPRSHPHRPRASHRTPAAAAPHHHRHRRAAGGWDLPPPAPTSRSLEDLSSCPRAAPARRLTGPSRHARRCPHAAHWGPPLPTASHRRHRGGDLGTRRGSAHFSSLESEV", "experiment": "cell-based", "type": "cell-based", "design": "host or cells: CHO (CHO-hN1-h2D), tetracycline-induced expression"}, "NR1-2A NMDAR [4]": {"target": "T4, NR1-2A NMDAR (Homo sapiens, UniProt Q05586+Q12879)", "T4 sequence (Q12879 23-1464, other chains not shown)": "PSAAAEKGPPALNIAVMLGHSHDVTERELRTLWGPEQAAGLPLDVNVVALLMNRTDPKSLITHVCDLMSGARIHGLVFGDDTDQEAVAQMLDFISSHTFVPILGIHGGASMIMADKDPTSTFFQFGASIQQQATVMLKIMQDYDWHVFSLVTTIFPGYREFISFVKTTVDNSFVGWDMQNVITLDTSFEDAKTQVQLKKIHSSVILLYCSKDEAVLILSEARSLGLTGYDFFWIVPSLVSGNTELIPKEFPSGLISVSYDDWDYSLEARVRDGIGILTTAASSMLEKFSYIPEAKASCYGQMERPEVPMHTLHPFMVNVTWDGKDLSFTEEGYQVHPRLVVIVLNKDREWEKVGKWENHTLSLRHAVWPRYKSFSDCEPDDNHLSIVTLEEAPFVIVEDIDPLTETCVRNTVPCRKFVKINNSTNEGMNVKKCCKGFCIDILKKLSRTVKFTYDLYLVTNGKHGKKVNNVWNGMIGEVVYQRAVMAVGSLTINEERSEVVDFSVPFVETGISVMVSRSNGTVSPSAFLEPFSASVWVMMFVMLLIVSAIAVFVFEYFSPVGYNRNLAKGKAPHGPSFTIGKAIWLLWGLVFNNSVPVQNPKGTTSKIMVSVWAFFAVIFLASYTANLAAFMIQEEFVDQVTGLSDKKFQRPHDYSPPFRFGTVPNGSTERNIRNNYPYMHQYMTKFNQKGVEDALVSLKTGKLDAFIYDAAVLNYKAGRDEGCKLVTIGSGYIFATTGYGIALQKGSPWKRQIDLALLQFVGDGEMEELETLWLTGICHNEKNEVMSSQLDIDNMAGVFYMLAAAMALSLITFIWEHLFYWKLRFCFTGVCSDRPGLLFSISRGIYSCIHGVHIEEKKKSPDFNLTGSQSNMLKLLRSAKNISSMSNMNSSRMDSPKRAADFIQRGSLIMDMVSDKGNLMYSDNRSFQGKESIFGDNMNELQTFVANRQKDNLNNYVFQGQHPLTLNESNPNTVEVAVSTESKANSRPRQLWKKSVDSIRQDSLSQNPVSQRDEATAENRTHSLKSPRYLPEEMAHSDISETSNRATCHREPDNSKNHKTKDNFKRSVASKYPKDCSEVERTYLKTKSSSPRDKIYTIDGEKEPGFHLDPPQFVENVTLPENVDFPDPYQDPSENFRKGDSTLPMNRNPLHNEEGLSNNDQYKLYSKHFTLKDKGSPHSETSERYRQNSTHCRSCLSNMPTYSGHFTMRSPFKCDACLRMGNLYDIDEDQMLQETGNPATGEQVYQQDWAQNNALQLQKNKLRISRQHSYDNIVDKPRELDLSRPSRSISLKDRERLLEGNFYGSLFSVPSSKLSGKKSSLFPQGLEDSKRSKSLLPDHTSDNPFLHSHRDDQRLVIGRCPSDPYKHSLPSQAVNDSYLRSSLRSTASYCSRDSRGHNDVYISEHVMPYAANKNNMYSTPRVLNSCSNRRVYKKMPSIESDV", "experiment": "cell-based", "type": "cell-based", "design": "host or cells: CHO (CHO-hNR1-h2A), tetracycline-induced expression"}, "NR1-2B NMDAR [5]": {"target": "T1, NR1-2B NMDAR", "experiment": "Whole-cell automated patch-clamp (QPatch) in 1 mM Mg2+", "type": "cell-based", "design": "host or cells: CHO (CHO-hNR1-h2B), constitutive expression", "conditions": "1 mM MgCl2, 10 μM L-glutamate, 10 μM glycine", "protocol": "(§1) Data were obtained in automated patch-clamp platform. […] Statistical results of one-way analysis of variance (ANOVA) followed by Tukey’s multiple comparisons test also reported p < 0.05 (*), p < 0.01 (**), p < 0.001 (***), and p < 0.0001 (****). Glu is glutamate.\n(§2) For QPatch experiments, cells were grown in T-flasks first at 37 °C, 5% CO2 for 3 to 4 h, then at 30 °C, 5% CO2 for 18 to 24 h in DMEM/F12 medium with added 500 μM ketamine and 10 μg/mL tetracycline (except for NR1-2B-CHO cells) without additional antibiotics. Cells were manually detached from the culture dish and automatically dispensed in QPatch wells with extracellular solution in the presence of 1 mM Mg^2+ and 500 μM ketamine.\n(§3) Holding potential was −80 mV, and voltage protocol included a depolarizing 2-s step pulse to +60 mV to check the quality of the seal and cell NMDAR expression level, followed by a 2-s ramp-up to holding potential."}, "NR1-2C NMDAR [6]": {"target": "T2, NR1-2C NMDAR", "experiment": "Whole-cell automated patch-clamp (QPatch) in 1 mM Mg2+", "type": "cell-based", "design": "host or cells: CHO (CHO-hN1-h2C), tetracycline-induced expression", "conditions": "1 mM MgCl2, 10 μM L-glutamate, 10 μM glycine", "protocol": "as §1, §2, §3"}, "NR1-2D NMDAR [7]": {"target": "T3, NR1-2D NMDAR", "experiment": "Whole-cell automated patch-clamp (QPatch) in 1 mM Mg2+", "type": "cell-based", "design": "host or cells: CHO (CHO-hN1-h2D), tetracycline-induced expression", "conditions": "1 mM MgCl2, 10 μM L-glutamate, 10 μM glycine", "protocol": "as §1, §2, §3"}, "NR1-2A NMDAR [8]": {"target": "T4, NR1-2A NMDAR", "experiment": "Whole-cell automated patch-clamp (QPatch) in 1 mM Mg2+", "type": "cell-based", "design": "host or cells: CHO (CHO-hNR1-h2A), tetracycline-induced expression", "conditions": "1 mM MgCl2, 10 μM L-glutamate, 10 μM glycine", "protocol": "as §1, §2, §3"}, "NMDAR": {"target": "NMDAR", "design": "method as in Eurofins Panlabs Discovery Services Taiwan", "conditions": "assay parameter of the contract laboratory; ref Eurofins Panlabs Discovery Services Taiwan; read-out: Kd of the radioligand; cited from earlier work"}},
  "data": [
    {"smiles": "N[C@@H](CCC(=O)O)C(=O)O", "note": "[L-glutamate]", "values": [
      {"measurement": "L-glutamate Max. (maximal asymptote), alone", "setting": "NR1-2B NMDAR [1]", "value": 111, "unit": "%"},
      {"measurement": "L-glutamate Max. (maximal asymptote), alone", "setting": "NR1-2C NMDAR [2]", "value": 106, "unit": "%"},
      {"measurement": "L-glutamate Max. (maximal asymptote), alone", "setting": "NR1-2D NMDAR [3]", "value": 105, "unit": "%"},
      {"measurement": "L-glutamate Max. (maximal asymptote), alone", "setting": "NR1-2A NMDAR [4]", "value": 106, "unit": "%"}
    ]},
    {"smiles": "[Cl-].[Cl-].[Mg+2]", "note": "[MgCl2]", "values": [
      {"measurement": "current at −60 mV normalized to −30 mV current (100%)", "setting": "NR1-2B NMDAR [5]", "value": "26 ± 1.8", "unit": "%"},
      {"measurement": "current at −60 mV normalized to −30 mV current (100%)", "setting": "NR1-2C NMDAR [6]", "value": "64 ± 5.6", "unit": "%"},
      {"measurement": "current at −60 mV normalized to −30 mV current (100%)", "setting": "NR1-2D NMDAR [7]", "value": "55 ± 1.8", "unit": "%"},
      {"measurement": "current at −60 mV normalized to −30 mV current (100%)", "setting": "NR1-2A NMDAR [8]", "value": "24 ± 2.4", "unit": "%"}
    ]},
    {"smiles": "c1csc(C2(N3CCCCC3)CCCCC2)c1", "note": "[[^3H]TCP]", "values": [
      {"measurement": "Kd", "setting": "NMDAR", "value": 8.4, "unit": "nM"}
    ]}
  ]
}
